According to PMC6934184, “Selective DNA-PKcs inhibition extends the therapeutic index of localized radiotherapy and chemotherapy” (The Journal of Clinical Investigation, 2019):

Molecular target: T1, ABL1 T315I (Homo sapiens, UniProt P00519, T315I)
T1 construct: purchased Thermo Fisher Scientific (Life Technologies) SelectScreen
Experiment: SelectScreen Z'LYTE
Type: biochemical
Summary of the method: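 NU5455 was profiled across the SelectScreen Broad panel of kinase activity and binding assays. Z'LYTE reactions such as CSF1R ran at apparent Km ATP, while the Adapta CAMK1 assay used ATP listed as 10. Values are given as percent.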

Work on `CN(C(=O)CN1CCOCC1)c1ccc2sc3c(-c4cccc5c(=O)cc(N6CC7CCC(C6)O7)oc45)cccc3c2c1` [NU5455] yielded an inhibition at 1 µM of -3%.
